# Measured values as given in ChEMBL document CHEMBL1129683, “Thermodynamic aspects of hydrophobicity and the blood-brain barrier permeability studied with a gel filtration chromatography” (J Med Chem, 1996).
# Experiment: Micelle/water partition coefficient (Pmic) of the compound was determined
# Assay type: physicochemical
# Conditions: buffer
row,Structure (SMILES),Log Pmic
1,Cc1cc(=O)n(-c2ccccc2)n1C [ANTIPYRINE],0.58
2,NC(N)=O [UREA],-0.12
3,COc1cccc2c1C(=O)c1c(O)c3c(c(O)c1C2=O)C[C@@](O)(C(=O)CO)C[C@@H]3O[C@H]1C[C@H](N)[C@H](O)[C@H](C)O1 [DOXORUBICIN],1.9
4,NC(N)=S [THIOUREA],0.48
5,CCc1nc(N)nc(N)c1-c1ccc(Cl)cc1 [PYRIMETHAMINE],2.51
6,O=c1[nH]c(=O)n(C2CCCO2)cc1F (configuration not stated) [TEGAFUR],0.7
7,Cc1ncc([N+](=O)[O-])n1CCO [METRONIDAZOLE],0.54
8,CC[C@]1(O)C[C@H]2CN(CCc3c([nH]c4ccccc34)[C@@](C(=O)OC)(c3cc4c(cc3OC)N(C=O)[C@H]3[C@@](O)(C(=O)OC)[C@H](OC(C)=O)[C@]5(CC)C=CCN6CC[C@]43[C@@H]65)C2)C1 [VINCRISTINE],2.48
9,O=c1[nH]cc(F)c(=O)[nH]1 [FLUOROURACIL],0.21
10,CN1CC(=O)NC1=N [CREATININE],-0.3
11,CNC(=O)c1cccnc1 [NICOTINYL METHYLAMIDE],0.39
12,NC=O [FORMAMIDE],-0.35
